Data reported in patent US20070160576A1, “IL-17A/F heterologous polypeptides and therapeutic uses thereof” (Genentech, Inc., priority 2001, published 2007).
“Also recorded” adds a separate entry of the source.

Tested on: TK-10 cells
Test: IL-8 and IL-6 production in TK-10 cells (ELISA of conditioned media)
Assay type: cell-based, human
Conditions: for IL-8 production: IL-8 ELISA
Protocol: Fractions were tested by incubation with TK-10 cells for 24 hours (0.033 microliters fraction/ml of cell culture media). Conditioned media was then collected and IL-8 and IL-6 concentration measurements were performed on each fraction by ELISA. […] Gels, blots, amino acid sequence and activity assays were run on this fraction (FIG. 3). Alternatively, fraction 31 and the remaining volume of fraction 32, from the HiLoad S Sepharose run were pooled and dialyzed against Buffer A for eight hours using a 10 kD cutoff membrane and passed through a 0.2 micron filter. […] Fractions 26-43 were assayed and protein concentrations were determined by amino acid analysis. Pure IL-17A/F was identified in fractions 31-33 as a single protein with apparent molecular mass of 30-35 kD. The concentrations of fractions 31, 32 and 33 were 0.258, 0.359 and 0.291 mg/ml respectively.
IL-17A/F, IL-17 and IL-17F were incubated with TK-10 cells at the indicated concentrations for 24 hours.
TK-10 conditioned media was collected and analyzed by IL-8 ELISA and IL-6 ELISA.

## IL-17A/F: novel human cytokine, covalent heterodimer of one IL-17 chain and one IL-17F chain
IL-8 induction in TK-10 cells, greater activity than IL-17F
  difference in activity (potency) from IL-17 and IL-17F: roughly an order of magnitude
TK-10 cells, 24 hours, IL-6 ELISA
  IL-6 production: induced production of IL-6
TK-10 cells, 24 hours
  IL-8 production: robustly induced IL-8 production; also recorded: induce IL-8 production; also recorded: potent IL-8 inducing activity
TK-10 cells, 24 hours, listed as Fraction 38
  IL-8 production: robust activity
